Experimental data taken from US20140148446A1, “COMPOUNDS THAT ENABLE ALTERNATIVE MITOCHONDRIAL ELECTRON TRANSFER” (University of North Texas Health Science Center, priority 2010, published 2014).

Legend:
HT-22 cells [1] = assay: Protection against cell death (cell viability) induced by glutamate in HT-22 cells; assay type: cell-based; settings: Mus musculus
Experimental: HT-22 cells (gift from Dr. David Schubert, Salk Institute, San Diego, Calif.) were plated at 4,000 cells per well in 96 well plates and cultured over night. […] At the end of the 24 hours, the medium was removed and the plates were rinsed with PBS and incubated with 10 μM calcein-AM (Invitrogen, Carlsbad, Calif.) in PBS for 20 minutes. […] Cell culture wells treated with bleach before rinsing were used as blank.

HT-22 cells [2] = assay: Protection against mitochondrial membrane potential collapse induced by glutamate in HT-22 cells; assay type: cell-based; settings: Mus musculus
[3] = test system: mitochondrial complex I-III; assay type: biochemical, rat
Experimental: (§1) Fresh rat heart was removed and placed in ice-cold mitochondrial isolation buffer containing 210 mM mannitol, 70 mM sucrose, 5 mM HEPES, and 1 mM EDTA, pH 7. The heart was homogenized immediately, and the mitochondrial fraction was isolated by differential centrifugation as described previously (Trounce et al., 1996). Mitochondria were stored at −80° C. until subsequent analysis.
All mitochondrial activity assays were performed according to previous publications with minimal modifications for complex I (Lenaz et al., 2004), complex I-III, complex II, complex III, and II-III (Trounce et al., 1996). […] Complex I activity was monitored by adding NADH to the mix with or without rotenone/antimycin A. The final data were normalized to blank values at time zero. The reaction was monitored in a kinetic spectrophotometer at 340 nm. Complex I activity was measured in arbitrary units and normalized to control levels for statistical analysis. Isolated mitochondria equivalent to 40-200 μg mitochondrial protein was used for each assay, except for assays with inhibitors, when larger amount of mitochondria (3 to 5 folds) were used to ensure that inhibition was distinguishable. Final data were normalized to control levels. For complex I-III activity, the reaction was initiated with the addition of NADH, cyt c was used as final substrate and its reduction was monitored at 550 nm. For assay of complex II-III activity, succinate was added instead of NADH, and the electron transfer to cyt c was performed according to previous publications (Atamna et al., 2008). To test whether the electrons from the reduced form of MB (MBH2) can be transferred to cyt c in mitochondrial lysate, we added 10 μM 2,7-dichlorofluorescin (DCFH, Invitrogen, Carlsbad, Calif.) to the reaction system. Free radicals convert non-fluorescent DCFH to highly fluorescent DCF (Ex, 488 nm, and Em, 530 nm). In the presence of cyt c, which accepts electrons from MBH2, conversion of DCFH to DCF is decreased.

[4] = test system: mitochondrial complex III; assay: Mitochondrial complex III activity assay; assay type: biochemical, rat; settings: data not shown
Experimental: as §1
All mitochondrial activity assays were performed according to previous publications with minimal modifications for complex I (Lenaz et al., 2004), complex I-III, complex II, complex III, and II-III (Trounce et al., 1996). […] Complex I activity was monitored by adding NADH to the mix with or without rotenone/antimycin A. The final data were normalized to blank values at time zero. The reaction was monitored in a kinetic spectrophotometer at 340 nm. Complex I activity was measured in arbitrary units and normalized to control levels for statistical analysis. Isolated mitochondria equivalent to 40-200 μg mitochondrial protein was used for each assay, except for assays with inhibitors, when larger amount of mitochondria (3 to 5 folds) were used to ensure that inhibition was distinguishable. Final data were normalized to control levels. For complex I-III activity, the reaction was initiated with the addition of NADH, cyt c was used as final substrate and its reduction was monitored at 550 nm. […]

HT-22 cells [5] = assay: Cell viability assay, rotenone induced cytotoxicity; assay type: cell-based; settings: rotenone 8 μM, 100 ng/ml MB co-treatment; vehicle 25.4±1.6%
Experimental: Then cells were treated with vehicle (DMSO), rotenone (2-8 μM), antimycin A (1-10 μg/ml), or glucose oxidase (2-10 mU) in the presence or absence of various concentrations of MB for 24 hours. At the end of the 24 hours, the medium was removed and the plates were rinsed with PBS and incubated with 10 μM calcein-AM (Invitrogen, Carlsbad, Calif.) in PBS for 20 minutes. Fluorescence was determined using a TECAN M200 microplate reader (San Jose, Calif.) with an excitation/emission set at 485/530 nm. Cell culture wells treated with bleach before rinsing were used as blank.

HT-22 cells [6] = assay: Cell viability assay, H2O2 (glucose oxidase) induced cytotoxicity; assay type: cell-based
FRDA fibroblast = assay: BSO induced FRDA fibroblast cell death; assay type: cell-based
[7] = test system: rotenone induced rat model of PD
Experimental: Rats were assigned to three groups: control animals received vehicle infusion and daily saline injection (Veh/Sal N=6-8); a second group received rotenone infusion at the dose of 5 mg/kg/day and daily saline injection (ROT/Saline N=8-11); and the third group received rotenone infusion (5 mg/kg/day) and MB injection at the dose of 500 μg/kg/day (ROT/MB N=8-10). Vehicle or rotenone was infused via Alzet osmotic mini pumps that were filled with vehicle or rotenone dissolved in vehicle (equal volumes of dimethylsulfoxide and polyethylene glycol). Pumps containing vehicle or rotenone were sterilized with UV irradiation and implanted subcutaneously on the back. Intraperitoneal injections were administered with normal saline or MB, 500 μg/kg/day, diluted in normal saline to 500 μl of final volume. Rats were sacrificed on day 8 at four hours after last dose of MB or saline treatment.
After completion of neurological assessments and behavioral tests, rats were killed on the 8th day of rotenone infusion under anesthesia induced by xylazine (20 mg/kg, i.p.) and ketamine (100 mg/kg, i.p.). All osmotic pumps were checked for the residual liquid to ensure proper drug delivery. One hemisphere was fixed by 4% paraformaldehyde in phosphate buffer for 48 hr until processing for sectioning. The other hemisphere was snap-frozen in liquid nitrogen, and kept at −80° C. until extraction for biochemical analysis.
Rat hemispheres were sequentially incubated in 10%, 20% and 30% sucrose over night. The brains were then frozen in optimal cutting temperature) compound (VWR, San Francisco Calif.) and sectioned in the coronal plane with a cryostat to produce 20 μm floating sections. For single immunohistochemistry studies, 20-μm sections were blocked with 5% normal goat serum and incubated in primary antibodies at 4° C. over night. […] Double stained sections were examined with conventional fluorescence microscopy, and images were captured on a Zeiss microscope linked to an image analysis system with selective filter sets to visualize FITC, rhodamine, and DAPI separately. […]

CN(C)c1ccc2nc3ccc(=[N+](C)C)cc-3sc2c1 [methylene blue]
EC50 (HT-22 cells [1]; HT-22, glutamate toxicity, HT22 cells, read-out: EC50 against glutamate toxicity in HT22 cells): 0.176 nM | EC50 (HT-22 cells [1]; glutamate, HT-22 cells, read-out: Protection against cell death (EC50)): 18.8 nM | EC50 (HT-22 cells [2]): 17.7 nM | Complex I-III activity, % of the control level ([3]; 1 μg/ml MB, in the presence of antimycin A): 674±99% | Complex I-III activity, % of control ([3]; 1 μg/ml MB, in the presence of rotenone): 118.1±6.4% | Increase of complex I-III activity ([3]; increasing doses of MB (0.1-1 μg/ml)): up to nine-fold increase | Effect on complex III activity alone [4]: no significant effect | Cell survival (HT-22 cells [5]): 60.5±4.5% | Protection against H2O2 induced oxidative damage (HT-22 cells [6]): failed to protect | Damaging effects of BSO (cell death) (FRDA fibroblast): greatly ameliorates | TH-positive cells and nerve fiber in SNC and VTN ([7]; ROT/MB animals): a sufficient amount of TH-positive cell and nerve fiber were observed | Fluoro-jade B-positive TH neurons ([7]; ROT/MB group, 4 out of 11 ROT/Sal animals positive): not found | Ubiquitin positive inclusion bodies ([7]; ROT/MB group, 6 out 11 ROT/Sal rats positive): not found
